ChEMBL document CHEMBL1201862, “PubChem BioAssay data set” (2004)
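Tested at 5 concentrations; 48 h exposure; 96-well plates; endpoints linearly interpolated, else capped at highest concentration. At the GI50, growth is halved.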 The source made the active and inactive calls. Rule as the data show it: active = GI50 up to about 1.1 µM and inactive = higher.

What was measured:
Test in all cases: NCI-60 cell line screen, 48 h
DLD-1 = tested on: DLD-1
DMS-114 = tested on: DMS-114
DMS-273 = tested on: DMS-273
HOP-18 = tested on: HOP-18
KM-20L2 = tested on: KM-20L2
LXFL 529 = tested on: LXFL 529
RXF 631 = tested on: RXF 631
SNB-78 = tested on: SNB-78
XF498 = tested on: XF498

Structure (SMILES) | GI50 (DLD-1) | GI50 (DMS-114) | GI50 (DMS-273) | GI50 (HOP-18) | GI50 (KM-20L2) | GI50 (LXFL 529) | GI50 (RXF 631) | GI50 (SNB-78) | GI50 (XF498)
COc1cccc(C2c3cc4c(cc3OC(O)(CO)C2C(=O)O)OCO4)c1.COc1cccc(C2c3cc4c(cc3OC3(O)COC(=O)C23)OCO4)c1 (centres undefined) | 48.9 µM (inactive) | 49.4 µM (inactive) | 65.3 µM (inactive) | > 100 µM (inactive) | > 100 µM (inactive) | 57.9 µM (inactive) | 75.5 µM (inactive) | – | –
O=c1[nH]c2cc([N+](=O)[O-])ccc2nc1/C(=N/Nc1ccccc1)C(O)c1ccccc1Cl (centres undefined) | > 100 µM (inactive) | 6.75 µM (inactive) | 34.8 µM (inactive) | – | 14.9 µM (inactive) | 28.1 µM (inactive) | – | > 100 µM (inactive) | > 100 µM (inactive)
O=S(O)CCCSSCCCCSSCCCS(=O)O | > 100 µM (inactive) | > 100 µM (inactive) | > 100 µM (inactive) | > 100 µM (inactive) | > 100 µM (inactive) | > 100 µM (inactive) | – | > 100 µM (inactive) | > 100 µM (inactive)
COc1ccc(/C=C2\CCCCC2=O)cc1 | > 100 µM (inactive) | > 100 µM (inactive) | > 100 µM (inactive) | > 100 µM (inactive) | > 100 µM (inactive) | > 100 µM (inactive) | – | > 100 µM (inactive) | > 100 µM (inactive)
CC(=O)N1CCc2[nH]c3ccccc3c2CC1 | > 100 µM (inactive) | > 100 µM (inactive) | > 100 µM (inactive) | 86.9 µM (inactive) | > 100 µM (inactive) | > 100 µM (inactive) | > 100 µM (inactive) | > 100 µM (inactive) | > 100 µM (inactive)
CC(=O)OCC1OC(OC2CC3C(C)(C)C(OC(C)=O)CC[C@]3(C)C3CCC45CC4(CC[C@H]5C(C)CC(O)C4OC4(C)C)[C@]23C)C(O)C(O)C1O (some centres undefined) | 1.79 µM (inactive) | 1.58 µM (inactive) | 1.99 µM (inactive) | 2.2 µM (inactive) | 1.85 µM (inactive) | 3.11 µM (inactive) | 2.32 µM (inactive) | 5.71 µM (inactive) | 1.53 µM (inactive)
C=CCn1c(=S)sc2c(C(=O)OCC)c3c(C)cc(C)cn3c2c1=O | > 100 µM (inactive) | – | > 100 µM (inactive) | – | > 100 µM (inactive) | > 100 µM (inactive) | – | > 100 µM (inactive) | –
O=[N+]([O-])c1ccc(-c2ccc(/C=N/n3c(S)nnc3-c3ccc(Cl)cc3)o2)cc1 | 41.6 µM (inactive) | 95.3 µM (inactive) | 22.9 µM (inactive) | > 100 µM (inactive) | 28 µM (inactive) | 22.5 µM (inactive) | > 37.4 µM (inactive) | > 50.6 µM (inactive) | 19.5 µM (inactive)
Cc1nc(Nc2ccc(Cl)c(Cl)c2)sc1C(/C=C/c1ccc2c(c1)OCO2)=N/Nc1ccc([N+](=O)[O-])cc1[N+](=O)[O-] | > 100 µM (inactive) | 51.8 µM (inactive) | 32 µM (inactive) | – | > 100 µM (inactive) | > 68.5 µM (inactive) | – | 2.27 µM (inactive) | 13.9 µM (inactive)
COC(=O)C(c1ccc(OC)cc1)N1C(=O)[C@@H](NC(=O)c2ccccc2)[C@H]1[C@@H](C)O (some centres undefined) | > 100 µM (inactive) | – | > 100 µM (inactive) | – | > 100 µM (inactive) | > 100 µM (inactive) | – | > 100 µM (inactive) | > 100 µM (inactive)
[O-]c1c2cc(-[n+]3c(-c4ccccc4)cc(-c4ccccc4)cc3-c3ccccc3)cc1COCCOCCOCCOCCOC2 | 44 µM (inactive) | – | 45.9 µM (inactive) | 57.3 µM (inactive) | 31.3 µM (inactive) | 21.2 µM (inactive) | – | – | –
Cc1cc(N(CCC#N)CCC#N)ccc1/C=C/C(=O)Nc1cccc(Cl)c1 | > 100 µM (inactive) | > 100 µM (inactive) | > 100 µM (inactive) | – | 87.1 µM (inactive) | 29.7 µM (inactive) | > 100 µM (inactive) | – | > 100 µM (inactive)
O=C1C(Br)=CC2(C=C1Br)CCNC1=C2C(=O)c2ccccc2C1=O | 9.25 µM (inactive) | 5.7 µM (inactive) | – | 32.2 µM (inactive) | 7.41 µM (inactive) | 5.37 µM (inactive) | 5.69 µM (inactive) | 11.2 µM (inactive) | –
CN(C)CCCN1N=Nc2cccc3cccc1c23 | > 60.1 µM (inactive) | > 42.1 µM (inactive) | 19.4 µM (inactive) | 99.3 µM (inactive) | 54.3 µM (inactive) | > 50.9 µM (inactive) | 87.5 µM (inactive) | 62.4 µM (inactive) | 86.9 µM (inactive)
Cc1cc(CC(O)c2ccc(Cl)c(Cl)c2)nc(O)n1 (centres undefined) | 18.7 µM (inactive) | 8.49 µM (inactive) | – | – | 51.1 µM (inactive) | 20.9 µM (inactive) | – | 76.2 µM (inactive) | 18.4 µM (inactive)
N=C(N)NS(=O)(=O)c1ccc(NC(=O)c2cccc3c(Nc4ccc(S(=O)(=O)N=C(N)N)cc4)c4ccc(Cl)cc4nc23)cc1 | 67.1 µM (inactive) | 31.2 µM (inactive) | > 100 µM (inactive) | > 100 µM (inactive) | 74.8 µM (inactive) | 33 µM (inactive) | – | 81.3 µM (inactive) | 67.3 µM (inactive)
CCCCCCCCCCCCCCCCP(=O)(OC)OC | 17.5 µM (inactive) | 16.1 µM (inactive) | 14.5 µM (inactive) | 15 µM (inactive) | 22.4 µM (inactive) | 15.8 µM (inactive) | 16.9 µM (inactive) | 17.7 µM (inactive) | 13.1 µM (inactive)
CCOC(=O)C(=O)Nc1c(F)cc(F)cc1Br | > 100 µM (inactive) | > 100 µM (inactive) | – | – | > 100 µM (inactive) | > 100 µM (inactive) | – | > 100 µM (inactive) | > 100 µM (inactive)
O=C1/C(=C/c2ccccc2)CN(C(=O)Oc2ccc([N+](=O)[O-])cc2)C/C1=C\c1ccccc1 | 1.79 µM (inactive) | 2.11 µM (inactive) | 0.883 µM (active) | > 10 µM (inactive) | 4.69 µM (inactive) | 2.02 µM (inactive) | – | 5.16 µM (inactive) | > 10 µM (inactive)
CCC(/C=C/C1OC(=O)C=CC1C)=C\C(C)C/C=C/C(C)=C/C(C)C(=O)C(C)C(O)C(C)C/C(C)=C/C(=O)O (centres undefined) | 1.43 µM (inactive) | 0.847 µM (active) | 1.1 µM (active) | 6.04 µM (inactive) | 4.13 µM (inactive) | – | – | 3.21 µM (inactive) | –
Cc1nc(NC(=S)NC(=O)c2ccc(Cl)c(Cl)c2)sc1C(=O)/C=C/c1ccccc1[N+](=O)[O-] | 48.9 µM (inactive) | – | 20.9 µM (inactive) | 12.4 µM (inactive) | 18.6 µM (inactive) | 21.6 µM (inactive) | 24.1 µM (inactive) | 30.1 µM (inactive) | 20.6 µM (inactive)
O=C(O)C#CCO | – | > 100 µM (inactive) | > 100 µM (inactive) | – | – | > 100 µM (inactive) | > 100 µM (inactive) | > 100 µM (inactive) | > 100 µM (inactive)
COc1ccccc1NC(=O)C(CC(C(=O)Nc1ccccc1OC)/C(C)=N/NC(=O)c1ccccc1O)/C(C)=N/NC(=O)c1ccccc1O (centres undefined) | 57.5 µM (inactive) | 70.8 µM (inactive) | > 100 µM (inactive) | – | > 100 µM (inactive) | 66.4 µM (inactive) | 69.8 µM (inactive) | > 100 µM (inactive) | > 100 µM (inactive)
O=[N+]([O-])c1cccc(C2=NN(c3ccccc3)C3c4ccccc4OCC23)c1 (centres undefined) | > 100 µM (inactive) | > 100 µM (inactive) | > 100 µM (inactive) | > 100 µM (inactive) | > 100 µM (inactive) | > 100 µM (inactive) | > 100 µM (inactive) | > 100 µM (inactive) | > 100 µM (inactive)
CC1(C)CC[C@]2(C(=O)O)CCC3(C)C(=CCC4[C@@]5(C)CC[C@H](OC6OCC(O)C(O)C6OC6OC(CO)C(O)C(O)C6O)C(C)(C)C5CC[C@]43C)C2C1 (some centres undefined) | 8.61 µM (inactive) | 2.04 µM (inactive) | 2.06 µM (inactive) | 1.95 µM (inactive) | 2.02 µM (inactive) | 1.9 µM (inactive) | 1.74 µM (inactive) | 2.76 µM (inactive) | 1.94 µM (inactive)
C/C(CC(=O)Nc1cc(C)ccc1C)=N/N=C(N)N | > 100 µM (inactive) | > 100 µM (inactive) | > 100 µM (inactive) | – | > 100 µM (inactive) | > 100 µM (inactive) | – | > 100 µM (inactive) | > 100 µM (inactive)
COc1ccc2c(c1)c1ccc3c(c1n2C)C(=O)C=CC3=O | 7.4 µM (inactive) | 20.7 µM (inactive) | 24.3 µM (inactive) | 12.2 µM (inactive) | 38.5 µM (inactive) | 14.1 µM (inactive) | 20 µM (inactive) | 20.9 µM (inactive) | 17.2 µM (inactive)
CCCCCCn1c(SCC)c2ccccc2c1-c1nc(F)nc(F)n1 | > 100 µM (inactive) | > 100 µM (inactive) | > 100 µM (inactive) | – | > 100 µM (inactive) | > 100 µM (inactive) | – | > 100 µM (inactive) | > 100 µM (inactive)
